Measured values taken from PubChem BioAssay (NCI).
“And” between values parts separate entries of the source, which are not always exact repeats. Identical values can stand only once.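 Interpolation was linear, between the two tested concentrations surrounding the appropriate level; five concentrations were tested over 48 hours in 96-well plates. The concentration for 50% growth inhibition is given as GI50. TGI denotes the concentration required for complete inhibition of growth.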

How the values were obtained:
Assay in all cases: DTP human tumour cell line panel, 48 h
[1] = test system: NCI/ADR-RES ovarian
[2] = test system: HS 578T breast
[3] = test system: MDA-MB-435
[4] = test system: MDA-N
[5] = test system: BT-549 breast
[6] = test system: DLD-1 colon
[7] = test system: DMS 114 small cell lung

O=C(O)c1nnsc1COCc1ccccc1
TGI [1]: > 100 µM
TGI [2]: > 100 µM
TGI [3]: > 100 µM
TGI [4]: > 100 µM
TGI [5]: > 100 µM

Cc1ccc(-c2cc3nc(-c4ccccc4)nc(C(Cl)Cl)n3n2)cc1
GI50 [1]: 0.789 µM
TGI [1]: 2.42 µM
GI50 [2]: 0.932 µM
TGI [2]: 2.31 µM
GI50 [3]: 1.14 µM
TGI [3]: 2.71 µM
GI50 [5]: 15.2 µM
TGI [5]: > 50 µM

OC1CCC(Oc2cccc3cnc(Nc4ccc5nc[nH]c5c4)nc23)CC1 (configuration not stated)
GI50 [1]: 1.6 µM
TGI [1]: 13 µM
GI50 [2]: 0.728 µM
TGI [2]: 8.32 µM
GI50 [3]: 0.612 µM
TGI [3]: 12.1 µM
GI50 [5]: 0.22 µM
TGI [5]: 0.906 µM

COc1ccc([N+](=O)[O-])c2c(NCC(O)CO)ccnc12 (configuration not stated)
TGI [2]: > 100 µM
TGI [3]: > 100 µM
TGI [4]: > 100 µM
TGI [5]: 56 µM

Cc1ccc2c(c1)sc(-c1ccc(N(C)C)cc1)[n+]2C
GI50 [1]: > 95.8 µM
TGI [1]: > 100 µM
GI50 [2]: 6.39 µM
TGI [2]: > 87.7 µM
GI50 [3]: 0.879 µM
TGI [3]: 13 µM
GI50 [5]: 0.464 µM
TGI [5]: 8.08 µM

O=[N+]([O-])/C=C\c1ccc2c(c1)OCO2
GI50 [1]: 10.3 µM
TGI [1]: 29.3 µM
GI50 [2]: 3.47 µM
TGI [2]: 19.9 µM
GI50 [3]: 2.16 µM
GI50 [5]: 2.15 µM
TGI [5]: 4.8 µM

CN(C)CCNC(=O)c1cccc(CO)c1[N+](=O)[O-]
TGI [1]: > 100 µM
TGI [2]: > 100 µM
TGI [3]: > 100 µM
TGI [4]: > 100 µM
TGI [5]: > 100 µM

ClCCn1cnc2c(SCc3ccccc3)ncnc21
GI50 [1]: 4.94 µM
TGI [1]: > 100 µM
GI50 [2]: 15.4 µM
TGI [2]: > 100 µM
GI50 [3]: 3.47 µM
TGI [3]: > 100 µM
GI50 [5]: 0.685 µM
TGI [5]: > 100 µM

Cn1cnc([N+](=O)[O-])c1Sc1ncnc2nc[nH]c12
GI50 [1]: 3.27 µM and 5.39 µM
TGI [1]: > 100 µM
GI50 [2]: 4.8 µM and 3.86 µM
TGI [2]: > 100 µM
GI50 [3]: 2.68 µM and 4.37 µM
TGI [3]: > 100 µM
GI50 [5]: 12.2 µM and 7.26 µM
TGI [5]: > 100 µM

CCOC(=O)c1c2ccc(/C=C/C(=O)OC)ccc-2c(C(=O)OCC)c1N
TGI [6]: > 100 µM
TGI [7]: > 100 µM

Cc1ccc(N2C(=O)C(Cl)=C(Nc3cccc(O)c3)C2=O)cc1Cl
GI50 [1]: 21.6 µM
TGI [1]: 54.7 µM
GI50 [2]: 17.4 µM
TGI [2]: 42.1 µM
GI50 [3]: 16.6 µM
TGI [3]: 34 µM

O=Nc1c2cccnc2n2nnc3ccc(Cl)cc3c12
GI50 [1]: 1.29 µM
TGI [1]: 7.84 µM
GI50 [2]: 2.84 µM
TGI [2]: 9.89 µM
GI50 [3]: 2.65 µM
TGI [3]: 7.99 µM
GI50 [5]: 3.57 µM
TGI [5]: 12.3 µM

COc1cccc2c(=O)c3c(sc12)c(NCCCN)nc1ccccc13
GI50 [3]: 1.8 µM
TGI [3]: 3.34 µM
GI50 [5]: 10.8 µM
TGI [5]: 26.5 µM

CCOC(=O)/C(C1=CC(=O)C(=O)c2ccccc21)=C(/C)NCc1ccccc1
GI50 [1]: 2.02 µM
TGI [1]: 5.08 µM
GI50 [2]: 2.54 µM
TGI [2]: 6.96 µM
GI50 [3]: 0.226 µM
TGI [3]: 0.476 µM
GI50 [5]: 3.29 µM
TGI [5]: 6.18 µM

O=C1NC(=O)C(c2ccccc2Cl)=C1Nc1cccc(O)c1
GI50 [1]: 3.2 µM
TGI [1]: > 25 µM
GI50 [2]: 1.82 µM
TGI [2]: 17.7 µM
GI50 [5]: 9.62 µM
TGI [5]: > 25 µM

OCCCNCc1ccccn1
TGI [1]: > 100 µM
TGI [2]: > 100 µM
TGI [3]: > 100 µM
TGI [4]: > 100 µM
TGI [5]: > 100 µM

O=C1OCC2=Nc3cccc4cccc(c34)N12
TGI [1]: > 100 µM
TGI [2]: > 100 µM
TGI [3]: > 100 µM
TGI [5]: > 100 µM

COC(=O)/C(=N/NC(C)(C)C)C(C(=O)C=C(C)C)C(=O)C(=O)Nc1ccc(Cl)cc1C (configuration not stated)
TGI [7]: > 100 µM

CC1=CC[C@@H]2C(C)(C)[C@@H](O)CC[C@@]2(C)[C@@H]1COc1ccc2ccc(=O)oc2c1
GI50 [1]: 3.22 µM
TGI [1]: 12.7 µM
GI50 [2]: 3.29 µM
TGI [2]: 23.4 µM
GI50 [3]: 10.3 µM
TGI [3]: 23.9 µM
GI50 [5]: 2.9 µM
TGI [5]: 8.23 µM

Cc1cc(O)cc(C)c1/C=C/c1cncc(C(=O)N(C)C)c1
GI50 [1]: > 25 µM
TGI [1]: > 25 µM
GI50 [2]: > 25 µM
TGI [2]: > 25 µM
GI50 [3]: > 25 µM
TGI [3]: > 25 µM
GI50 [5]: > 25 µM
TGI [5]: > 25 µM

CN(C)CCNc1cccc2sc3ccc(O)cc3c(=O)c12
GI50 [1]: 3.14 µM
TGI [1]: 12.7 µM
GI50 [2]: 1.75 µM
TGI [2]: 11.8 µM
GI50 [3]: 1.49 µM
TGI [3]: 3.16 µM
GI50 [5]: 9.2 µM
TGI [5]: 23.5 µM

NC(N)=NNC(=O)C(=O)O
TGI [1]: > 100 µM
TGI [2]: > 100 µM
TGI [3]: > 100 µM
TGI [4]: > 100 µM
TGI [5]: > 100 µM

Cc1ccc(C)c(NC(=O)/C(=N\NC(N)=S)C(C#N)c2ccccc2)c1 (configuration not stated)
TGI [6]: > 100 µM
TGI [7]: > 100 µM

NC(N)=N/N=C/c1c(-c2cc(Cl)sc2Cl)nc2n1CCS2
GI50 [1]: > 50 µM
TGI [1]: > 50 µM
GI50 [2]: 9.23 µM
TGI [2]: 21.8 µM
GI50 [3]: 11.1 µM
TGI [3]: 19.7 µM
GI50 [5]: 8.51 µM
TGI [5]: 17.3 µM

O=C1Cc2c(-c3ccccc3)cc(-c3cccc(Cl)c3)nc2-c2ccccc2N1
TGI [1]: 7.46 µM
TGI [2]: 9.85 µM
TGI [3]: > 59.9 µM
TGI [4]: 31.6 µM
TGI [5]: 22.1 µM

CCN(CC)C(=S)SSC1CCCCC1
GI50 [1]: 21.3 µM
TGI [1]: 47 µM
GI50 [2]: 27.4 µM
TGI [2]: 88.2 µM
GI50 [3]: 15 µM
TGI [3]: 33.1 µM
GI50 [5]: 19 µM
TGI [5]: 46.5 µM

C=C1C(=O)O[C@H]2[C@H]1CC/C(COC(=O)c1ccc(C(=O)O)s1)=C\CC[C@@]1(C)O[C@@H]21
GI50 [1]: 3.4 µM
TGI [1]: 26.2 µM
GI50 [2]: 4.79 µM
TGI [2]: 64.5 µM
GI50 [3]: 1.92 µM
TGI [3]: 4 µM
GI50 [5]: 1.72 µM
TGI [5]: 4.85 µM

Cc1cc2occ(C)c(=O)c2c2c1OC(C)(C)S2
TGI [6]: > 100 µM
TGI [7]: > 100 µM

Cc1ccc(S(=O)(=O)NCCN2c3nc4ccccc4cc3Sc3cc4ccccc4nc32)cc1
GI50 [1]: > 25.1 µM
TGI [1]: > 100 µM
GI50 [2]: 2.43 µM
TGI [2]: 23.2 µM
GI50 [3]: > 100 µM
TGI [3]: > 100 µM
GI50 [5]: 17.4 µM
TGI [5]: > 100 µM

CN(C)CN1C(=O)S/C(=C2\C(=O)N(CN(C)C)c3ccccc32)C1=O
TGI [1]: > 100 µM
TGI [2]: > 100 µM
TGI [3]: > 100 µM
TGI [5]: > 100 µM

C=C1C(O)C2C(=C(CC(C)C)C13CC3)C(=O)C(C)(C)C2OC (configuration not stated)
GI50 [1]: > 100 µM
TGI [1]: > 100 µM
GI50 [2]: > 100 µM
TGI [2]: > 100 µM
GI50 [3]: > 100 µM
TGI [3]: > 100 µM
GI50 [5]: > 100 µM
TGI [5]: > 100 µM

N#C/C(=C(\O)C(=O)O)c1ccc(-c2cccc3ccccc23)cc1
TGI [1]: > 100 µM
TGI [2]: > 100 µM
TGI [3]: > 100 µM
TGI [4]: > 100 µM
TGI [5]: > 100 µM

OCC1OC(N2C=C(c3nc4ccccc4s3)C3C=CC=CC32)C(O)C1O (configuration not stated)
GI50 [1]: 12.2 µM
TGI [1]: 36.9 µM
GI50 [2]: 14.2 µM
TGI [2]: > 50 µM
GI50 [3]: 12 µM
TGI [3]: 24.5 µM
GI50 [5]: 9.55 µM
TGI [5]: 27.5 µM

c1cc(-c2sc(-c3ccncc3)c(-c3ccncc3)c2-c2ccncc2)ccn1
TGI [1]: 82 µM
TGI [2]: 73.5 µM
TGI [3]: 33.4 µM
TGI [4]: 29 µM
TGI [5]: 42 µM

O=S(=O)(O)c1ccc2cc(N=Nc3cc(S(=O)(=O)O)c4cccnc4c3O)ccc2c1
TGI [1]: > 100 µM
TGI [2]: > 100 µM
TGI [3]: > 100 µM
TGI [4]: > 100 µM
TGI [5]: > 100 µM

CC/C=C\C[C@H](O)C/C=C1/C(=O)C=C[C@@H]1C/C=C\CCCC(N)=O
GI50 [1]: 2.81 µM
TGI [1]: 12.3 µM
GI50 [2]: 5.29 µM
TGI [2]: 32.4 µM
GI50 [3]: 1.72 µM
TGI [3]: 5.24 µM
GI50 [5]: 2.17 µM
TGI [5]: 5.54 µM

Nc1ncnc2c1ncn2C1OC(C(=O)O)C(O)C1O (configuration not stated)
TGI [1]: > 100 µM
TGI [2]: > 100 µM
TGI [3]: > 100 µM
TGI [4]: > 100 µM
TGI [5]: > 100 µM

O=C(O)C(Cc1ccc(O)c([N+](=O)[O-])c1)N1C(=O)c2ccccc2C1=O (configuration not stated)
TGI [1]: > 100 µM
TGI [2]: > 100 µM
TGI [3]: > 100 µM
TGI [4]: > 100 µM
TGI [5]: > 100 µM

O=C(N/N=C/c1ccc(F)cc1)c1[nH]c2ccc(I)cc2c1-c1ccccc1
GI50 [1]: 0.274 µM
TGI [1]: 0.769 µM
GI50 [2]: 0.235 µM
TGI [2]: 0.642 µM
GI50 [3]: 0.162 µM
TGI [3]: 0.348 µM
GI50 [5]: 2.15 µM
TGI [5]: 22.9 µM

CC1(C)C(=O)/C(=C\c2ccco2)C[C@]2(C)[C@H]3CC=C4[C@@H]5C[C@](C)(C(=O)O)CC[C@]5(C)CC[C@@]4(C)[C@]3(C)CC[C@@H]12
GI50 [1]: 10 µM
TGI [1]: 29.2 µM
GI50 [2]: 18.4 µM
TGI [2]: > 100 µM
GI50 [3]: 12.1 µM
TGI [3]: 30.3 µM
GI50 [5]: 9.46 µM
TGI [5]: 25.4 µM

CCCCc1cc(O)ccc1O
GI50 [1]: 23.2 µM
TGI [1]: > 100 µM
GI50 [2]: 18.7 µM
TGI [2]: > 100 µM
GI50 [3]: 22 µM
TGI [3]: 62.1 µM
GI50 [5]: 6.12 µM
TGI [5]: > 100 µM

NC(=O)c1ccccc1NC(=O)C(=O)C(c1cnc2ccc([N+](=O)[O-])cc2n1)[N+](=O)[O-] (configuration not stated)
TGI [1]: > 100 µM
TGI [2]: > 100 µM
TGI [3]: > 100 µM
TGI [5]: > 100 µM

CCc1ccc(C2=C(O)C(=O)C(c3ccc(CC)cc3)=C(O)C2=O)cc1
GI50 [1]: 2.21 µM
TGI [1]: 5.86 µM
GI50 [2]: 1.72 µM
TGI [2]: 6.58 µM
GI50 [3]: 1.89 µM
TGI [3]: 6.72 µM
GI50 [5]: 1.76 µM
TGI [5]: 5.62 µM

CCOC(=O)/C=C/c1ccc(C(=O)OCC)[nH]1
GI50 [1]: 3.3 µM
TGI [1]: > 100 µM
GI50 [2]: 2.43 µM
TGI [2]: 22.3 µM
GI50 [3]: 0.393 µM
TGI [3]: 2.29 µM
GI50 [5]: 6.76 µM
TGI [5]: > 100 µM
